Laboratory results reported in patent US20250018047A1, “METHODS AND COMPOSITIONS FOR TARGETED PROTEIN DEGRADATION” (Ranok Therapeutics (Hangzhou) Co. Ltd., priority 2021, published 2025).
Structures can show the parent of a compound that is named as a salt.

Tests used:
KRAS(G12D) = target: T1, KRAS(G12D) (Homo sapiens, UniProt P01116, G12D); assay: SW1990 WB assay (degradation DC50, Dmax); assay type: cell-based; conditions: Western blot, SW1990 cells
T1 construct: endogenous in cells; host or cells: SW1990

KRAS(G12D)/SOS1 = target: T2, KRAS(G12D)/SOS1 (Homo sapiens, UniProt P01116, G12D); assay: KRAS(G12D)/SOS1 homogeneous time-resolved fluorescence (HTRF) assay; assay type: binding; conditions: absence of GTP, 4° C. for 3 hr
T2 construct: purchased Cisbio 63ADK000CB16PEG
Description: The test compound was mixed and incubated with reaction components, incubated in a sealed plate at 4° C. for 3 hr and fluorescence was measured using a PerkinElmer Envision plate reader.

[1] = system: AsPC-1 human pancreatic adenocarcinoma; assay: CellTiter-Glo cancer cell line proliferation assay, AsPC-1; assay type: cell-based; conditions: Homo sapiens, ASPC1, 24 hr
Description: (§1) Cell lines were cultured according to ATCC and recommendations.
(§2) CellTiter-Glo® Reagent Cancer Cell Line Proliferation Assays
(§3) Cells were plated in 96-well tissue culture plates at 4,000 cells/well and incubated at 37° C./5% CO2 for 24 hr in 100 μl of media. […] Cells were then treated with test compounds at various concentrations with a final concentration of 0.5% DMSO/well, and then incubated at 37° C./5% CO2 for 24 hr. 100 μl of CellTiter-Glo® Reagent (Promega Corporation, Madison, WI) was added to each well and processed according manufacturer's protocol. Results were analyzed and IC50-values were calculated in GraphPad 7 software.

[2] = system: A-427 human lung carcinoma; assay: CellTiter-Glo cancer cell line proliferation assay, A-427; assay type: cell-based; conditions: Homo sapiens, A-427, 24 hr, read-out: A427 at 24 hrs, IC50
Description: as §1, §2, §3

[3] = target: BA/F3-KRAS(G12D) murine pro-B cell line stably expressing KRAS(G12D) (Homo sapiens, UniProt P01116, G12D, cells depend on it); assay: CellTiter-Glo cancer cell line proliferation assay, BA/F3-KRAS(G12D); assay type: cell-based; conditions: 24 hr, read-out: BAF3 at 24 hrs, IC50
Description: The following cancer cell lines were employed: AsPC-1 human pancreatic adenocarcinoma (ATCC, #CRL-1682); A-427 human lung carcinoma (ATCC, #HTB-53); BA/F3-KRAS(G12D) murine pro-B cell line stably expressing KRAS(G12D) (Precedo, Hefei, China). Cell lines were cultured according to ATCC and recommendations. BA/F3-KRAS(G12D) cells were cultured in RPMI 1640 media with 10% fetal calf serum, 100 units/mL penicillin and […] streptomycin, and 1% glutamine.
as §2
Cells were plated in 96-well tissue culture plates at 4,000 cells/well and incubated at 37° C./5% CO2 for 24 hr in 100 μl of media. 3-fold serial dilutions of each test compound were prepared ranging from 20 μM to 1.02 nM. Cells were then treated with test compounds at various concentrations with a final concentration of 0.5% DMSO/well, and then incubated at 37° C./5% CO2 for 24 hr. 100 μl of CellTiter-Glo® Reagent (Promega Corporation, Madison, WI) was added to each well and processed according manufacturer's protocol. Results were analyzed and IC50-values were calculated in GraphPad 7 software.

T1 sequence (P01116 1-188 isoform P01116-2 G12D): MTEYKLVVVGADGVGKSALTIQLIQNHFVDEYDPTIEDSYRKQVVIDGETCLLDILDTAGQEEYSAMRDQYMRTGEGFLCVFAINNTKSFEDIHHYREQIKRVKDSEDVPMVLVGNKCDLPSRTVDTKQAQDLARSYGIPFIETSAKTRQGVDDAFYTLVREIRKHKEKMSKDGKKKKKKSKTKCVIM
T2 sequence (P01116 1-188 isoform P01116-2 G12D): as above
BA/F3-KRAS(G12D) murine pro-B cell line stably expressing KRAS(G12D), sequence (P01116 whole entry G12D): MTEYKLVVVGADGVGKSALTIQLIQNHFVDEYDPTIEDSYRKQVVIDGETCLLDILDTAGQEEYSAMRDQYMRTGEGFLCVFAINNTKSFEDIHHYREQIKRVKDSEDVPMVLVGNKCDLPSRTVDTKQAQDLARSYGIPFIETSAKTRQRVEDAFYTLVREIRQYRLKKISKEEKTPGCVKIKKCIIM

Structure (SMILES) | DC50 (KRAS(G12D)) [nM] | Dmax (KRAS(G12D)) [%] | IC50 (KRAS(G12D)/SOS1) [nM] | IC50 [1] [nM] | IC50 [2] [nM] | GI50 [3] [nM]
C#Cc1c(F)ccc2cc(O)cc(-c3nc(OC)c4c(N5CC6CCC(C5)N6C(=O)C(F)(F)F)nc(OCC5(CN6CCN(CC7CCN(c8ccc9c(c8)CN(C8CCC(=O)NC8=O)C9=O)CC7)CC6)CC5)nc4c3F)c12 (stereo not drawn) [Compound 93] | 100 to 1000 | 10 to 50 | < 100 | 100 to 1000 | > 1000 | 
C#Cc1cccc2cccc(-c3ncc4c(N5CC6CCC(C5)N6)nc(OCCN5CCN(CC6CCN(c7ccc8c(c7)C(=O)N(C7CCC(=O)NC7=O)C8=O)CC6)CC5)nc4c3F)c12 (stereo not drawn) [Compound 1, 5-(4-((4-(2-((4-(3,8-diazabicyclo[3.2.1]octan-3-yl)-7-(8-ethynylnaphthalen-1-yl)-8-fluoropyrido[4,3-d]pyrimidin-2-yl)oxy)ethyl)piperazin-1-yl)methyl)piperidin-1-yl)-2-(2,6-dioxopiperidin-3-yl)isoindoline-1,3-dione hydrochloride] |  |  | 100 to 1000 |  | > 1000 | > 1000
C#Cc1c(F)ccc2cc(O)cc(-c3nc(OC)c4c(N5CC6CCC(C5)N6)nc(OCC5(CN6CCN(CC7CCN(c8ccc9c(c8)CN(C8CCC(=O)NC8=O)C9=O)CC7)CC6)CC5)nc4c3F)c12 (stereo not drawn) [Compound 100] | > 1000 | 10 to 50 | < 100 | < 100 | 100 to 1000 | 
C#Cc1cccc2cc(O)cc(-c3ncc4c(N5CC6CCC(C5)N6)nc(OCC5(CN6CCN(CC7CCN(CCC(=O)N[C@@H](C(=O)N8C[C@@H](O)C[C@@H]8C(=O)NCc8ccc(-c9scnc9C)cc8)C(C)(C)C)CC7)CC6)CC5)nc4c3F)c12 [Compound 83] | > 1000 | 10 to 50 | < 100 | > 1000 | > 1000 | 
C#Cc1cccc2cccc(-c3ncc4c(N5CC6CCC(C5)N6)nc(OCCN5CCN(C(=O)C6CCN(c7ccc8c(c7)C(=O)N(C7CCC(=O)NC7=O)C8=O)CC6)CC5)nc4c3F)c12 (stereo not drawn) [Compound 4, 5-(4-(4-(2-((4-(3,8-diazabicyclo[3.2.1]octan-3-yl)-7-(8-ethynylnaphthalen-1-yl)-8-fluoropyrido[4,3-d]pyrimidin-2-yl)oxy)ethyl)piperazine-1-carbonyl)piperidin-1-yl)-2-(2,6-dioxopiperidin-3-yl)isoindoline-1,3-dione formate] |  |  | > 1000 |  | > 1000 | > 1000
C#Cc1cccc2cc(O)cc(-c3nc(OC)c4c(N5CC6CCC(C5)N6)nc(OCC5(CN6CCN(CC7CCN(c8ccc9c(c8)CN(C8CCC(=O)NC8=O)C9=O)CC7)CC6)CC5)nc4c3F)c12 (stereo not drawn) [Compound 78] | < 100 | > 50 | < 100 | < 100 | < 100 | 
C#Cc1cccc2cccc(-c3ncc4c(N5CC6CCC(C5)N6)nc(OC[C@@H]5CC[C@H](CN6CCN(Cc7ccc8c(c7)C(=O)N(C7CCC(=O)NC7=O)C8=O)CC6)N5C)nc4c3F)c12 (stereo partly drawn) [Compound 15, 5-((4-(((2R,5S)-5-(((4-(3,8-diazabicyclo[3.2.1]octan-3-yl)-7-(8-ethynylnaphthalen-1-yl)-8-fluoropyrido[4,3-d]pyrimidin-2-yl)oxy)methyl)-1-methylpyrrolidin-2-yl)methyl)piperazin-1-yl)methyl)-2-(2,6-dioxopiperidin-3-yl)isoindoline-1,3-dione formate] |  |  | < 100 |  | > 1000 | > 1000
C#Cc1c(F)ccc2cc(O)cc(-c3ncc4c(N5CC6CCC(C5)N6)nc(OCC5(CN6CCN(CC7CN(c8ccc9c(c8)CN(C8CCC(=O)NC8=O)C9=O)C7)CC6)CC5)nc4c3F)c12 (stereo not drawn) [Compound 103] | > 1000 | 10 to 50 | < 100 | 100 to 1000 | > 1000 | 
C#Cc1cccc2cc(O)cc(-c3ncc4c(N5CC6CCC(C5)N6)nc(OCC5(CN6CCN(CC7CCN(c8ccc(NC9CCC(=O)NC9=O)cc8)CC7)CC6)CC5)nc4c3F)c12 (stereo not drawn) [Compound 95] | > 1000 | < 10 | < 100 | 100 to 1000 | 100 to 1000 | 
C#Cc1cccc2cccc(-c3ncc4c(N5CC6CCC(C5)N6)nc(OCCC5CCN(CC6CCN(c7cccc8c7C(=O)N(C7CCC(=O)NC7=O)C8=O)CC6)CC5)nc4c3F)c12 (stereo not drawn) [Compound 3, 4-(4-((4-(2-((4-(3,8-diazabicyclo[3.2.1]octan-3-yl)-7-(8-ethynylnaphthalen-1-yl)-8-fluoropyrido[4,3-d]pyrimidin-2-yl)oxy)ethyl)piperidin-1-yl)methyl)piperidin-1-yl)-2-(2,6-dioxopiperidin-3-yl)isoindoline-1,3-dione hydrochloride] |  |  | < 100 |  | > 1000 | 100 to 1000
C#Cc1c(F)ccc2cc(O)cc(-c3ncc4c(N5CC6CCC(C5)N6)nc(OCC5(CN6CCC(CN7CCN(c8ccc9c(c8)CN(C8CCC(=O)NC8=O)C9=O)CC7)CC6)CC5)nc4c3F)c12 (stereo not drawn) [Compound 99] | < 100 | > 50 | < 100 | < 100 | > 1000 | 
C#Cc1cccc2cc(O)cc(-c3ncc4c(N5CC6CCC(C5)N6)nc(OCC5(CN6CCN(CC7CCN(c8ccc9c(c8)CN(C)C9=O)CC7)CC6)CC5)nc4c3F)c12 [Compound 81] | > 1000 | 10 to 50 | < 100 | 100 to 1000 | 100 to 1000 | 
C=CC(=O)N1CCN(c2nc(OCC3(CN4CCN(CC5CCN(c6ccc7c(c6)CN(C6CCC(=O)NC6=O)C7=O)CC5)CC4)CC3)nc3c2CCN(c2cccc4cccc(Cl)c24)C3)C[C@@H]1CC#N (stereo partly drawn) [Compound 98] | > 1000 | < 10 | > 1000 | > 1000 | > 1000 | 
Cc1ncsc1-c1ccc(CNC(=O)C2CC(O)CN2C(=O)C(NC(=O)C2CCN([C@H]3C[C@@H](COc4nc(N5CC6CCC(C5)N6)c5cnc(-c6cccc7cccc(Cl)c67)cc5n4)N(C)C3)CC2)C(C)(C)C)cc1 (stereo in doubt) [Compound 20, 1-[(3S,5S)-5-({[7-(8-chloronaphthalen-1-yl)-4-{3,8-diazabicyclo[3.2.1]octan-3-yl}pyrido[4,3-d]pyrimidin-2-yl]oxy}methyl)-1-methylpyrrolidin-3-yl]-N-[(2S)-1-[(2 S,4R)-4-hydroxy-2-({[4-(4-methyl-1,3-thiazol-5-yl)phenyl]methyl}carbamoyl)pyrrolidin-1-yl]-3,3-dimethyl-1-oxobutan-2-yl]piperidine-4-carboxamide] |  |  | > 1000 |  |  | > 1000
C#Cc1cccc2cccc(-c3ncc4c(N5CC6CCC(C5)N6)nc(OC[C@@H]5CC[C@H](CN6CCN(C(=O)C7CCN(c8ccc9c(c8)C(=O)N(C8CCC(=O)NC8=O)C9=O)CC7)CC6)N5C)nc4c3F)c12 (stereo partly drawn) [Compound 16, 5-(4-(4-(((2R,5S)-5-(((4-(3,8-diazabicyclo[3.2.1]octan-3-yl)-7-(8-ethynylnaphthalen-1-yl)-8-fluoropyrido[4,3-d]pyrimidin-2-yl)oxy)methyl)-1-methylpyrrolidin-2-yl)methyl)piperazine-1-carbonyl)piperidin-1-yl)-2-(2,6-dioxopiperidin-3-yl)isoindoline-1,3-dione hydrochloride] |  |  | < 100 |  | > 1000 | > 1000
C#Cc1c(F)ccc2cc(O)cc(-c3ncc4c(N5CC6CCC(C5)N6)nc(OCC5(CN6CCC(C7CCN(c8ccc9c(c8)CN(C8CCC(=O)NC8=O)C9=O)CC7)CC6)CC5)nc4c3F)c12 (stereo not drawn) [Compound 102] | 100 to 1000 | 10 to 50 | < 100 | < 100 | 100 to 1000 | 
C#Cc1cccc2cc(O)cc(-c3ncc4c(N5CC6CCC(C5)N6)nc(OCC5(CN6CCN(CC7CCN(c8ccc9c(c8)CN(C8CCC(=O)NC8=O)C9=O)CC7)CC6)CC5)nc4c3F)c12 (stereo not drawn) [Compound 57] | < 100 | > 50 | < 100 | < 100 | < 100 | 
